Measurements as given in patent publication US12077503B2, “Substituted cyclic amides and their use as herbicides” (FMC CORPORATION, priority 2015, dated 2024).

Assays:
Assay type in all cases: in vivo
[1] = system: ivy-leaved morning glory (Ipomoea hederacea); assay: Test G Post-Emergence Protocol; conditions: Ipomoea, post-emergence, 312 h, read-out: Morningglory, Ivy-leaved damage rating; for pest or weed control at 15.625 g/ha: 15.625 g ai/ha, evaluated after 13 days (100=total damage to plant; 0=no damage to plant); for pest or weed control at 62.5 g/ha: 62.5 g ai/ha; for pest or weed control at 62.5 g/ha / pest or weed control at 250 g/ha: evaluated after 13 days, 100=total damage to plant, 0=no damage to plant; for pest or weed control at 250 g/ha: 250 g ai/ha
How it was run: (§1)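 Foliar application was made 8 days after sowing, using an aqueous spray of the active in acetone/water (50:50) with 0.5% Tween 20, at doses of 15.625, 62.5 or 250 g/ha. Injury was assessed 13 days later, where 100 meant the plant was fully damaged.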

corn (Zea mays) [2] = assay: Test G Post-Emergence Protocol; conditions: Zea mays, post-emergence, 312 h, read-out: Corn damage rating; for plant injury at 15.625 g/ha: 15.625 g ai/ha, evaluated after 13 days (100=total damage to plant; 0=no damage to plant); for plant injury at 62.5 g/ha: 62.5 g ai/ha; for plant injury at 62.5 g/ha / plant injury at 250 g/ha: evaluated after 13 days, 100=total damage to plant, 0=no damage to plant; for plant injury at 250 g/ha: 250 g ai/ha
How it was run: as §1

[3] = system: barnyardgrass (Echinochloa crus-galli); assay: Test G Post-Emergence Protocol; conditions: Echinochloa crus-galli, post-emergence, 312 h, read-out: Barnyardgrass damage rating; for pest or weed control at 15.625 g/ha: 15.625 g ai/ha, evaluated after 13 days (100=total damage to plant; 0=no damage to plant); for pest or weed control at 62.5 g/ha: 62.5 g ai/ha; for pest or weed control at 62.5 g/ha / pest or weed control at 250 g/ha: evaluated after 13 days, 100=total damage to plant, 0=no damage to plant; for pest or weed control at 250 g/ha: 250 g ai/ha
How it was run: as §1

[4] = system: redroot pigweed (Amaranthus retroflexus); assay: Test G Post-Emergence Protocol; conditions: Amaranthus retroflexus, post-emergence, 312 h, read-out: Pigweed, Redroot damage rating; for pest or weed control at 15.625 g/ha: 15.625 g ai/ha, evaluated after 13 days (100=total damage to plant; 0=no damage to plant); for pest or weed control at 62.5 g/ha: 62.5 g ai/ha; for pest or weed control at 62.5 g/ha / pest or weed control at 250 g/ha: evaluated after 13 days, 100=total damage to plant, 0=no damage to plant; for pest or weed control at 250 g/ha: 250 g ai/ha
How it was run: as §1

[5] = system: giant foxtail (Setaria faberi); assay: Test G Post-Emergence Protocol; conditions: Setaria faberi, post-emergence, 312 h, read-out: Foxtail, Giant damage rating; for pest or weed control at 15.625 g/ha: 15.625 g ai/ha, evaluated after 13 days (100=total damage to plant; 0=no damage to plant); for pest or weed control at 62.5 g/ha: 62.5 g ai/ha; for pest or weed control at 62.5 g/ha / pest or weed control at 250 g/ha: evaluated after 13 days, 100=total damage to plant, 0=no damage to plant; for pest or weed control at 250 g/ha: 250 g ai/ha
How it was run: as §1

[6] = system: velvetleaf (Abutilon theophrasti); assay: Test G Post-Emergence Protocol; conditions: Abutilon theophrasti, post-emergence, 312 h, read-out: Velvetleaf damage rating; for pest or weed control at 15.625 g/ha: 15.625 g ai/ha, evaluated after 13 days (100=total damage to plant; 0=no damage to plant); for pest or weed control at 62.5 g/ha: 62.5 g ai/ha; for pest or weed control at 62.5 g/ha / pest or weed control at 250 g/ha: evaluated after 13 days, 100=total damage to plant, 0=no damage to plant; for pest or weed control at 250 g/ha: 250 g ai/ha
How it was run: as §1

[7] = system: ivy-leaved morning glory (Ipomoea hederacea); assay: Test G Pre-Emergence Protocol; conditions: Ipomoea, pre-emergence, 312 h, evaluated after 13 days; for pest or weed control at 15.625 g/ha: 15.625 g ai/ha; for pest or weed control at 15.625 g/ha / pest or weed control at 250 g/ha: read-out: Morningglory, Ivy-leaved damage rating (100=total damage to plant; 0=no damage to plant); for pest or weed control at 62.5 g/ha: 62.5 g ai/ha, 100=total damage to plant, 0=no damage to plant, read-out: Morningglory, Ivy-leaved damage rating; for pest or weed control at 250 g/ha: 250 g ai/ha
How it was run: (§2)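 Spraying took place one day after sowing, at 15.625, 62.5 or 250 g/ha, using an acetone/water (50:50) spray solution containing 0.5% Tween 20. Plants were kept under glasshouse conditions (24/16 °C, 14 h light, 65% humidity, watered twice daily), and injury was rated 0–100 at day 13.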

corn (Zea mays) [8] = assay: Test G Pre-Emergence Protocol; conditions: Zea mays, pre-emergence, 312 h, evaluated after 13 days; for plant injury at 15.625 g/ha: 15.625 g ai/ha; for plant injury at 15.625 g/ha / plant injury at 250 g/ha: read-out: Corn damage rating (100=total damage to plant; 0=no damage to plant); for plant injury at 62.5 g/ha: 62.5 g ai/ha, 100=total damage to plant, 0=no damage to plant, read-out: Corn damage rating; for plant injury at 250 g/ha: 250 g ai/ha
How it was run: as §2

[9] = system: barnyardgrass (Echinochloa crus-galli); assay: Test G Pre-Emergence Protocol; conditions: Echinochloa crus-galli, pre-emergence, 312 h, evaluated after 13 days; for pest or weed control at 15.625 g/ha: 15.625 g ai/ha; for pest or weed control at 15.625 g/ha / pest or weed control at 250 g/ha: read-out: Barnyardgrass damage rating (100=total damage to plant; 0=no damage to plant); for pest or weed control at 62.5 g/ha: 62.5 g ai/ha, 100=total damage to plant, 0=no damage to plant, read-out: Barnyardgrass damage rating; for pest or weed control at 250 g/ha: 250 g ai/ha
How it was run: as §2

[10] = system: redroot pigweed (Amaranthus retroflexus); assay: Test G Pre-Emergence Protocol; conditions: Amaranthus retroflexus, pre-emergence, 312 h, evaluated after 13 days; for pest or weed control at 15.625 g/ha: 15.625 g ai/ha; for pest or weed control at 15.625 g/ha / pest or weed control at 250 g/ha: read-out: Pigweed, Redroot damage rating (100=total damage to plant; 0=no damage to plant); for pest or weed control at 62.5 g/ha: 62.5 g ai/ha, 100=total damage to plant, 0=no damage to plant, read-out: Pigweed, Redroot damage rating; for pest or weed control at 250 g/ha: 250 g ai/ha
How it was run: as §2

[11] = system: giant foxtail (Setaria faberi); assay: Test G Pre-Emergence Protocol; conditions: Setaria faberi, pre-emergence, 312 h, evaluated after 13 days; for pest or weed control at 15.625 g/ha: 15.625 g ai/ha; for pest or weed control at 15.625 g/ha / pest or weed control at 250 g/ha: read-out: Foxtail, Giant damage rating (100=total damage to plant; 0=no damage to plant); for pest or weed control at 62.5 g/ha: 62.5 g ai/ha, 100=total damage to plant, 0=no damage to plant, read-out: Foxtail, Giant damage rating; for pest or weed control at 250 g/ha: 250 g ai/ha
How it was run: as §2

[12] = system: velvetleaf (Abutilon theophrasti); assay: Test G Pre-Emergence Protocol; conditions: Abutilon theophrasti, pre-emergence, 312 h, evaluated after 13 days; for pest or weed control at 15.625 g/ha: 15.625 g ai/ha; for pest or weed control at 15.625 g/ha / pest or weed control at 250 g/ha: read-out: Velvetleaf damage rating (100=total damage to plant; 0=no damage to plant); for pest or weed control at 62.5 g/ha: 62.5 g ai/ha, 100=total damage to plant, 0=no damage to plant, read-out: Velvetleaf damage rating; for pest or weed control at 250 g/ha: 250 g ai/ha
How it was run: as §2

## CN1C[C@@H](c2ccc(C(F)(F)F)cc2)[C@H](C(=O)Nc2cscn2)C1=O (racemic) [Compound 1659]
[1]
  pest or weed control at 15.625 g/ha: 0%
  pest or weed control at 62.5 g/ha: 0%
  pest or weed control at 250 g/ha: 0%
Corn (Zea mays) [2]
  plant injury at 15.625 g/ha: 0%
  plant injury at 62.5 g/ha: 0%
  plant injury at 250 g/ha: 10%
[3]
  pest or weed control at 15.625 g/ha: 0%
  pest or weed control at 62.5 g/ha: 0%
  pest or weed control at 250 g/ha: 20%
[4]
  pest or weed control at 15.625 g/ha: 0%
  pest or weed control at 62.5 g/ha: 0%
  pest or weed control at 250 g/ha: 20%
[5]
  pest or weed control at 15.625 g/ha: 0%
  pest or weed control at 62.5 g/ha: 0%
  pest or weed control at 250 g/ha: 40%
[6]
  pest or weed control at 15.625 g/ha: 0%
  pest or weed control at 62.5 g/ha: 0%
  pest or weed control at 250 g/ha: 0%
[7]
  pest or weed control at 15.625 g/ha: 0%
  pest or weed control at 62.5 g/ha: 0%
  pest or weed control at 250 g/ha: 0%
Corn (Zea mays) [8]
  plant injury at 15.625 g/ha: 0%
  plant injury at 62.5 g/ha: 0%
  plant injury at 250 g/ha: 0%
[9]
  pest or weed control at 15.625 g/ha: 0%
  pest or weed control at 62.5 g/ha: 0%
  pest or weed control at 250 g/ha: 0%
[10]
  pest or weed control at 15.625 g/ha: 0%
  pest or weed control at 62.5 g/ha: 0%
  pest or weed control at 250 g/ha: 0%
[11]
  pest or weed control at 15.625 g/ha: 0%
  pest or weed control at 62.5 g/ha: 0%
  pest or weed control at 250 g/ha: 0%
[12]
  pest or weed control at 15.625 g/ha: 0%
  pest or weed control at 62.5 g/ha: 0%
  pest or weed control at 250 g/ha: 0%

## CC(C)S(=O)(=O)c1ccccc1NC(=O)[C@H]1C(=O)N(C)C[C@@H]1c1ccc(C(F)(F)F)cc1 (racemic) [Compound 1665]
[1]
  pest or weed control at 15.625 g/ha: 0%
  pest or weed control at 62.5 g/ha: 0%
  pest or weed control at 250 g/ha: 0%
Corn (Zea mays) [2]
  plant injury at 15.625 g/ha: 0%
  plant injury at 62.5 g/ha: 0%
  plant injury at 250 g/ha: 0%
[3]
  pest or weed control at 15.625 g/ha: 0%
  pest or weed control at 62.5 g/ha: 0%
  pest or weed control at 250 g/ha: 40%
[4]
  pest or weed control at 15.625 g/ha: 0%
  pest or weed control at 62.5 g/ha: 0%
  pest or weed control at 250 g/ha: 40%
[5]
  pest or weed control at 15.625 g/ha: 0%
  pest or weed control at 62.5 g/ha: 0%
  pest or weed control at 250 g/ha: 60%
[6]
  pest or weed control at 15.625 g/ha: 0%
  pest or weed control at 62.5 g/ha: 0%
  pest or weed control at 250 g/ha: 0%
[7]
  pest or weed control at 15.625 g/ha: 0%
  pest or weed control at 62.5 g/ha: 0%
  pest or weed control at 250 g/ha: 20%
Corn (Zea mays) [8]
  plant injury at 15.625 g/ha: 0%
  plant injury at 62.5 g/ha: 0%
  plant injury at 250 g/ha: 0%
[9]
  pest or weed control at 15.625 g/ha: 0%
  pest or weed control at 62.5 g/ha: 0%
  pest or weed control at 250 g/ha: 20%
[10]
  pest or weed control at 15.625 g/ha: 0%
  pest or weed control at 62.5 g/ha: 0%
  pest or weed control at 250 g/ha: 20%
[11]
  pest or weed control at 15.625 g/ha: 0%
  pest or weed control at 62.5 g/ha: 0%
  pest or weed control at 250 g/ha: 80%
[12]
  pest or weed control at 15.625 g/ha: 0%
  pest or weed control at 62.5 g/ha: 0%
  pest or weed control at 250 g/ha: 0%
